Measured values: patent US7855076B2, “Use of discoidin domain receptor 1 (DDR1) and agents that affect the DDR1/collagen pathway” (The United States of America as represented by the …, priority 2002, dated 2010)

Key:
Format in all cases: cell-based, human
THP-1 cells = experiment: Flow cytometry of HLA-DR, CD11c, CD14, CD40 on PMA-treated THP-1 cells
Protocol: FIG. 5 is a graph showing the effects of collagen-activation of two DDR1 isoforms on the expression of CD11c, CD14, and CD40. Each cell line was plated at 5×10^6 cells/ml on either uncoated or collagen-coated plates and incubated at 37° C. for 24 hours in the presence of 10 nM PMA. Anti-1β integrin antibody (10 μg/ml) was used to block the effect of 1β integrin-collagen interaction. The percentage of CD11c, CD14, or CD40-positive cells is shown. Data are presented as the mean ±SD from three independent experiments.
Parental, mock, DDR1a-overexpressing, or DDR1b overexpressing THP-1 cells were plated at 5×10^6 cells/ml on either uncoated or collagen-coated plates and incubated at 37° C. for 24 or 48 hours in the presence of 10 nM PMA. One hundred thousand cells were suspended in 50 μl of cold PBS containing 0.1% NaN3, […] BSA and 200 μg/ml human IgG in a Falcon 2052 tube, and incubated for 10 minutes on ice. One μg of mouse monoclonal antibody against CD11c, CD14 CD40, or HLA-DR, or control mouse IgG were added to each tube and the cells were incubated for another 15 minutes on ice. The cells were washed with PBS, and then incubated with 1 μg of FITC-conjugated goat anti-mouse IgG for 15 minutes on ice. At the end of incubation, propidium iodide (PI) (100 μM) was added to each tube. The cells were washed by PBS, and subsequently analyzed by using a FACS scan (Becton Dickinson). Dead cells, determined by the incorporation of PI, were gated out. Results were processed by using the Cellquest software (Becton Dickinson).
The cells were then rinsed three times with RPMI 1640 containing 10% FCS, and incubated either with the p38 MAP kinase inhibitor SB203580, the MEK (MAP or ERK kinase) ½ inhibitor PD98059, or dimethylsulfoxide (DMSO) for 30 minutes, followed by an additional 12 hour incubation in the presence of 10 nM PMA plus collagen. The expression of HLA-DR was analyzed by flow cytometry.

GM-macrophages = experiment: HLA-DR expression on GM-macrophages; settings: pretreatment of 5-day GM-macrophages, 30 minutes
Protocol: The leukocyte-rich preparation was overlaid on Accu-prep in 50 ml tubes and the tubes were centrifuged at 800×g for 20 minutes at room temperature. PBMC fractions were collected, washed once with PBS at room temperature and twice with complete medium at 4° C. and resuspended in the same medium. Monocytes were further purified by using iso-osmotic Percoll gradient. At this stage, the purity of monocytes was higher than 90%. The cells (5×10^5/ml) were allowed to adhere to the surface of 6-well plates. After a 5-hour incubation at 37° C., nonadherent cells were removed and adherent cells were induced to differentiate into macrophages by incubation in the presence of GM-CSF (50 ng/ml) for 5 to 7 days to produce GM-CSF-induced macrophages (GM-macrophages). Five-day GM-macrophages were incubated for additional 2 days with GM-CSF in the presence of an agonistic anti-human DDR1 monoclonal mouse against the extracellular domain of DDR1 (IgM 513). To measure the effect of SB203580, 5-day GM-macrophages were pretreated with SB203580, for 30 minutes.

[1] = tested on: monocyte-derived dendritic cells; experiment: Flow cytometry of CD80, CD83, CD86, HLA-DR on monocyte-derived DCs
Protocol: Human PBMC were isolated from leukapheresis preparations obtained by the Blood Bank, Clinical Center, National Institutes of Health (Bethesda, Md.). The leukocyte-rich preparation was overlaid on Accu-prep in 50 ml tubes and the tubes were centrifuged at 800×g for 20 min at room temperature. PBMC fractions were collected, washed once with PBS at room temperature and twice with complete medium at 4° C. and resuspended in the same medium. Monocytes were further purified by using iso-osmotic Percoll gradient. At this stage, the purity of monocytes was higher than 90%. The cells (5×10^5/ml) were allowed to adhere to the surface of 6-well plates. After a 5 hour incubation at 37° C., non-adherent cells were removed, and remaining adherent cells were subjected to the DC (Baggiolini et al., Adv. Immunol. 55:97-179, 1993). Over 95% of the adherent cells were positive for CD14 by flow cytometry analysis. Monocytes were briefly resuspended at a concentration of 1×10^6 cells/ml and cultured in complete medium containing 50 ng/ml GM-CSF and 50 ng/ml IL-4. Cells were cultured for 7 days, with cytokine added every second day, to obtain a population of immature monocyte-derived dendritic cells (DC). For maturation, immature DC (iDC) were treated with TNF-α (50 ng/ml) from day 5 to day 7. Mouse monoclonal anti-DDR1 antibody (513) (5 μg/ml) was used to specifically activate DDR1. Unrelated mouse monoclonal IgM was used as a control.
Monocytes were plated at a density of 5×10^6 cell/ml and incubated for 5 days in the presence of 50 ng/ml GM-CSF and 50 ng/ml IL-4. Cells were cultured for 7 days, with cytokine added every second day, to obtain a population of immature monocyte-derived DCs. For maturation, iDCs were incubated with TNF-α (50 ng/ml) from day 5 to day 7. For activation of DDR1 on DCs, the cells were incubated in the presence of either agonistic anti-DDR1 IgM (513) or control IgM, and the expression of CD80, CD83, CD86, and HLA-DR was measured using a flow cytometer.
A hundred thousand cells were resuspended in 50 μl of cold PBS containing 0.1% sodium azide, […] bovine serum albumin (BSA) and 200 μg/ml of human IgG, and then incubated for 10 minutes on ice. Subsequently, the cells were incubated with antibodies against CD80, CD83, CD86 or HLA-DR for 15 minutes on ice, and followed by washing with PBS. After washing, cells were incubated with FITC-conjugated goat anti-mouse IgG for 15 minutes on ice. At the end of the incubation, PI was added to 100 μM. Cells were washed by PBS, and subsequently analyzed on a FACscan (Becton Dickinson). Dead cells, determined by their PI-staining, were gated out. Results were processed using CellQuest software (Becton Dickinson). For the experiments of p38 MAP kinase inhibition, iDC were pre-treated with SB203580, or DMSO for 30 minutes, and then cultured with TNF-α alone, TNF-α plus 513 agonistic anti-DDR1 IgM (5 μg/ml), or TNF-α plus control IgM (5 μg/ml). These experiments were repeated with cells from three different donors.

[2] = iDC pre-treated, TNF-α-induced maturation with agonistic anti-DDR1 IgM or control IgM
[3] = DC maturation induced with TNF-α 50 ng/ml
[4] = DDR1b-overexpressing cells, collagen-coated plates, PMA, 24 hours

C[S+]([O-])c1ccc(-c2nc(-c3ccncc3)c(-c3ccc(F)cc3)[nH]2)cc1 (stereo not shown) [SB203580]
expression of HLA-DR (THP-1 cells; collagen-activated PMA-treated DDR1b-overexpressing cells, 24 hours): dose-dependently inhibited
agonistic antibody-induced increase of HLA-DR-positive cells (GM-macrophages): completely inhibited
expression of CD80 [1, 2]: almost completely inhibited
expression of CD83 [1, 2]: almost completely inhibited
expression of CD86 [1, 2]: almost completely inhibited
expression of HLA-DR [1, 2]: almost completely inhibited

TNF-α
expression of CD80 [1, 3]: up-regulated
expression of CD83 [1, 3]: up-regulated
expression of CD86 [1, 3]: up-regulated
expression of HLA-DR [1, 3]: up-regulated

collagen
cells expressing HLA-DR (THP-1 cells; DDR1b-overexpressing cells, collagen-activated, PMA-treated, 12 hours): Approximately 10%
cells expressing HLA-DR (THP-1 cells; DDR1b-overexpressing cells, collagen-coated plates, 10 nM PMA, 24 hour): approximately 25%
cells expressing HLA-DR (THP-1 cells; DDR1b-overexpressing cells, collagen-coated plates, 10 nM PMA, 48 hour): Approximately 70%
cells expressing CD11c (THP-1 cells; [4]): approximately 53%
cells expressing CD14 (THP-1 cells; [4]): ~35%
cells expressing CD40 (THP-1 cells; [4]): approximately 19%
